Consider 6 substances from US20240002547A1, “T[…]-TARGETING CONSTRUCTS AND USES THEREOF” (AEBI LTD., priority 2016, published 2024).

Positions of bridges follow the written chain, without caps; N, C: chain ends. No end group written: not given here.

In one series the target is T1, human EGFR (Homo sapiens, UniProt P00533).
T1 construct: human EGFR in human epidermoid carcinoma cell line A431; endogenous in cells; host or cells: A431
Kind of series: EGFR autophosphorylation ELISA in A431 cells. Type of series: cell-based. As to the method: The effect of several peptides on the phosphorylation levels of human EGFR in human epidermoid carcinoma cell line A431 was assessed by ELISA test. Briefly, exponentially growing A431 cell culture were detaches from the flask with 0.25% trypsin/EDTA solution, and 200 μl of cell suspension were transferred to 96-well plates at the concentration of 2×10^5 cells/ml and grown for about 3 days. Following medium exchange, 50 μl EGF dilutions and EGF+peptides (50 ng/ml and 0.2 mg/ml, respectively) were added. The plate was incubated for 7.5 min at 37° C. EGF-containing medium was removed and the cells were fixed by 150 ul of fixing solution and incubated for 20 min. at room temperature, following which the plate was washed 2 times with triton washing solution. The level of phosphorylates was assessed by incubation with phospho-EGFR (Tyr1045) antibody as a primary antibody and Anti-rabbit IgG as a secondary antibody. […] The normalized percent of inhibition (of the EGFR auto-phosphorylation is presented in FIG. 11 and Table 4. The normalized percent of inhibition is calculated as the fluorescence signal of the test item divided by the fluorescence signal of the control that contains no test item, with the same concentration of EGF.
Efficacy of different concentration of the selected peptide was assessed by ELISA in a similar was as in Example 12. […]

Series [1] is described as follows: In vivo stability of fluorescently marked peptide in blood after tail vein injection. The note with it: mice. As to the method: The stability of the fluorescently marked peptide E13.3 alone or bound to 8-armed PEG was evaluated in vivo by injecting the compounds to the tail vein of mice. The blood of the animals was analyzed for the presence of the peptide (fluorescence) at different time intervals. It can be clearly seen from the result presented in FIG. 14 that t0.5 of the free peptide is much shorter (about several minutes) than that of the peptides bound to PEG (t0.5 of about 3.5 hours).

The target of series [2] is human Epidermal Growth Factor Receptor (EGFR) (Homo sapiens, UniProt P00533). Nature of the series: Screening of cyclopeptides binding to human EGFR. As to the method: Using the technique described in WO 2007/010525, a series of new peptides (cyclopeptides) binding to human Epidermal Growth Factor Receptor (EGFR) were generated and tested. After identification of several potential peptide, a few further cycles of optimization were performed.

For series [3], the target named is T2, eEF2 (Human; Yeast derived) (Homo sapiens, UniProt P13639).
T2 construct: host or cells: yeast
Kind of series: ELISA binding of phage-displayed peptides to eEF2 or BSA. The note with it: M13 phages expressing the peptide; read after 1.5 min and 30 min; BSA negative control. As to the method: Binding of Tox 1 and Tox2 to eEF2 was tested by ELISA using eEF2 or BSA as ligands.
0.25 μg of target proteins, eEF2 (Human; Yeast derived) or BSA (negative control) were applied to several wells of maxisorp plate (NUNC) in 50 μl PBS and incubated over night at 4° C. The solutions were removed, and each well was supplemented with 280 μl blocking solution (BSA 2 mg/ml). The plate was incubated 1 hr at 25° C.
To 1.5 ml tubes 100 μl of blocking solution+10^9 pfu (plaque forming units) of M13 phages that express the following peptides: eEF2-binding: RB, LBR1, TB2 (Tox2), Y02, GW (Tox1), DRB, PY, BW were added. The plate was incubated 1 hr at 25° C. The solution were discarded and the wells were washed 7 times with 280 μl washing solution (Tween 20 0.05%).
Each well was supplemented with 50 μl of HRP/Anti-M13 Monoclonal Conjugate (GE Healthcare) diluted 1:5000. The plate was incubated 1 hr at 25° C. The solutions were discarded and the wells were washed 7 times with 280 μl washing solution (Tween 20 0.05%). Each well was supplemented with 50 μl of TMB (T0440; Sigma).
The plate was photographed using a scanner after incubation time of 1.5 min and 30 min.

For another series, the target named is T3, eEF2 (Homo sapiens, UniProt P13639).
T3 construct: in vitro transcription/translation system using HeLa Lysate system; host or cells: HeLa lysate (1-Step Human Coupled IVT Kit-DNA)
Nature of the series: in vitro transcription/translation system (HeLa lysate, 1-Step Human Coupled IVT Kit, pCFE-GFP DNA). Type of series: biochemical. The note with it: peptide 5 μM; 4 hr at 30° C.; versus positive control without peptide and non eEF2-binding control peptide. As to the method:
The effect of Tox1 and Tox2 was tested in the in vitro transcription/translation system using HeLa Lysate system 1-Step Human Coupled IVT Kit-DNA (ThermoFisher Scientific). The following peptides were tested: GW (Tox1), DRB RB, TB2 (Tox2), and BW. In addition, a non eEF2-binding control peptide, GR, was also tested.
The IVT Kit components were mixed, and one portion was taken out to serve as a negative control. The rest of the mix was supplemented with pCFE-GFP DNA. This DNA, when transcribed and translated gives a fluorescence protein, GFP. The extent of fluorescence gives a measure of the extent of protein synthesis.
The mix was split into […] aliquots. Each aliquot was supplemented with lml of one concentration of a specific peptide. A positive control was supplemented with lml of PBS. The reaction mixtures were incubated 4 hr at 30° C.
[…] of PBS were added to each reaction mixtures. The mixtures were transferred to a 96 well black ELISA plate, and the fluorescence was measured at ex/em 482/512 nm.

In another series the target is human PD-L1 (Homo sapiens, UniProt Q9NZQ7). Nature of the series: Screening of cyclopeptides binding to human PD-L1. As to the method: Using the technique described in WO 2007/010525, a series of new peptides (cyclopeptides) binding to binding to a human PD-L1 were generated and tested. After identification of several potential peptides, a few further cycles of optimization were performed.
human PD-L1, sequence (Q9NZQ7 19-290): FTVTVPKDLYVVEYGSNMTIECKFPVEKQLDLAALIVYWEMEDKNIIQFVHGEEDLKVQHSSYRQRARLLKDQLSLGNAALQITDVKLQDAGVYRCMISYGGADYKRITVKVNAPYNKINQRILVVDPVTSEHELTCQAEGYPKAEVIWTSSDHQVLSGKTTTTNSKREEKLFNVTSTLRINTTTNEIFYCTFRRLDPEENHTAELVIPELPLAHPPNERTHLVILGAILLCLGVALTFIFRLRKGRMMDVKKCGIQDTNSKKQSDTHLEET

In a further series the test system is A549. Kind of series: Viability of A549 cells, alamarBlue. The format is cell-based, human. The note with it: all tested concentrations. As to the method: (§1) The anti-cancer activity of E13.3 was assessed using several cancer cell lines (A549—human lung carcinoma cell line and FaDu—human pharyngeal carcinoma cell line). The cell cultures were incubated in the presence or absence of E13.3 (at different concentrations) and tested for viability using alamarBlue reagent. The results are presented on FIG. 15.

The next series relates to FaDu. Kind of series: Viability of FaDu cells, alamarBlue. The format is cell-based, human. The note with it: all tested concentrations. As to the method: as §1
The test system of a further series is NCI-H1650 tumor. Kind of series: Accumulation of fluorescein-labelled E13.3-PEG in kidney, liver and tumor of xenograft mice. Type of series: in vivo. As to the method: E13.3-PEG was labeled with Flourescein and injected IV to Xenograft mice bearing subcutaneous NCI-H1650 tumor (lung cancer). Following anesthesia, kidney, liver and tumor were collected at specific time points and the fluorescence was measured.

The test system of another series is A431 cells. Nature of the series: Toxicity of PEG constructs on A431 cells, microscope images after 48 hours. The format is cell-based, human. As to the method:
(§2) A construct comprising a multi-arm-PEG scaffold bound to E13.3 targeting peptide having the sequence SEQ ID NO: 1 ([…]) and a toxin selected from BIMBH3 (referred also as BIM and having the sequence SEQ ID NO: 5 […]) or a combination of Tox1 and Tox2 was generated. The scaffolds were prepared as described in Example 5 and is denoted as PEG-E13.3-Tox1-Tox2 and PEG-13.3-BIM, accordingly
(§3) A431 cells (human squamous carcinoma express about 100,000 copies of EGFR on each cell) and MCF-7 cells (breast cancer cell expressing about 3,000 copies of EGFR on each cell) were thawed and cultivated to achieve exponentially growing cultures. Cells were collected, counted and seeded at the density of 7,000 cells/well and 5,000 cells/well, respectively, in a 96 well tissue culture plate.
(§4) The plates were incubated until the next day at the following conditions: 37±1° C., humidified, and 5±0.5% CO2/air, to enable cells adherence to the wells.
(§5) The cell viability of A549 cell was tested using Alamar Blue viability assay. At the next day following the seeding, Growth Media was replaced with 200 μl Assay Media that contained 2% FBS and Test Items at different concentrations of the construct (1, 3 and 8 μM), or Vehicle Control (PBS; concentration-0). Plates were incubated at 37±1° C., humidified 5±0.5% CO2/air. […]

A further series has as its system MCF-7 cells. Kind of series: Toxicity of PEG constructs on MCF-7 cells, microscope images after 48 hours. The format is cell-based, human. As to the method:
as §2, §3, §4, §5

Where [4] appears, read: 1, 3 and 8 μM, 48 hours, images.

As to CHPGDKQEDPNCLQADK [E13.3], the “Normalized Percent of EGFR autophosphorylation inhibition” value at human EGFR (A431, EGF 50 ng/ml, peptide 0.2 mg/ml, 7.5 min at 37° C., phospho-EGFR (Tyr1045)) stood at 99.4%. Further, the IC50 at human EGFR (Example 12, read-out: calculated IC50 of EGFR autophosphorylation inhibition) is 2 µM. In series [1] (free peptide), the t0.5 in blood result is listed as “about several”. Moreover, the “affinity to the receptor at its binding site” value in series [2] is “high affinity”.

Turning to “Cys-Arg-Arg-Gly-Ser-Arg-Ala-Ser-Gly-Ala-His-Cys (CRRGSRASGAHC; disulfide 1-12) [Tox2]”, the “binding to eEF2 (ELISA signal)” value in [3] was “strongest effect”. For the same substance, in the series with eEF2, the “GFP fluorescence (extent of protein synthesis)” value is recorded as “highest effect”.

Turning to “Cys-Ser-Ala-Arg-Trp-Gly-Pro-Thr-Met-Pro-Trp-Cys (CSARWGPTMPWC; disulfide 1-12) [Tox1]”, in the series with eEF2, the “GFP fluorescence (extent of protein synthesis)” value was “highest effect”.

Regarding “CysGluGlyLeuProAlaAspTrpAlaAlaAlaCys (CEGLPADWAAAC; also: cyclic, mode not given here) [PD-L1-GR]”, the “affinity to the receptor at its binding site” value in the series with human PD-L1 is “high affinity”.

With “E13.3-PEG: E13.3 bound to 8 arm PEG Succinimidyl Carboxymethyl Ester, MW 73,000 (Ac-CHPGDKQEDPNCLQADK; not fully specified; cysteine pairing not given here; also: one amine Dde-protected, site not given here)”, the t0.5 in blood result in series [1] (bound to 8-armed PEG) is “about 3.5 hours”. The “viability of cancer cells” value in the series with A549 was “successfully reduce the viability”. The “viability of cancer cells” value in the series on FaDu was “successfully reduce the viability”. Further, the “interaction with and internalization by cancer cells isolated from tumor” value in the series with NCI-H1650 tumor (1 hour and 24 hour after IV injection) was “most of the cancer cells interact with E13.3-PEG and internalize the fluorescent peptide”. In the series with NCI-H1650 tumor (IV, NCI-H1650 xenograft mice), the “fluorescence in kidney and liver” value is “fast increase in the fluorescence in kidney and liver with a typical elimination curve afterwards”; the “fluorescence in tumor (cancer cells)” value is reported as “accumulated in the cancer cells”.

As to “PEG-E13.3-Tox1-Tox2: multi-arm-PEG scaffold bound to E13.3 targeting peptide and a combination of Tox1 and Tox2 (peptide 1 Ac-CHPGDKQEDPNCLQADK; peptide 2 CSARWGPTMPWC; peptide 3 CRRGSRASGAHC; not fully specified (bridges); cysteine pairing not given here; also: multi-arm PEG scaffold carrying E13.3, Tox1 and Tox2)”, the “effect on cell aggregates / proportion of dead cells” value with A431 cells (setting [4]) and in the series on MCF-7 cells (setting [4]) was “proportion of dead cells increased” throughout. In addition, the “potency of cell death compared with the BIM construct” value in the series on A431 cells (images at 48 hours) and in the series with MCF-7 cells (images at 48 hours) was “more potent” in each case.
